Molecular target: T1, human PAH with the R408W mutation (A375 R408W cells) (Homo sapiens, UniProt P00439, R408W)
T1 construct: expressed in transfected cells
T1 sequence (P00439 1-452 R408W): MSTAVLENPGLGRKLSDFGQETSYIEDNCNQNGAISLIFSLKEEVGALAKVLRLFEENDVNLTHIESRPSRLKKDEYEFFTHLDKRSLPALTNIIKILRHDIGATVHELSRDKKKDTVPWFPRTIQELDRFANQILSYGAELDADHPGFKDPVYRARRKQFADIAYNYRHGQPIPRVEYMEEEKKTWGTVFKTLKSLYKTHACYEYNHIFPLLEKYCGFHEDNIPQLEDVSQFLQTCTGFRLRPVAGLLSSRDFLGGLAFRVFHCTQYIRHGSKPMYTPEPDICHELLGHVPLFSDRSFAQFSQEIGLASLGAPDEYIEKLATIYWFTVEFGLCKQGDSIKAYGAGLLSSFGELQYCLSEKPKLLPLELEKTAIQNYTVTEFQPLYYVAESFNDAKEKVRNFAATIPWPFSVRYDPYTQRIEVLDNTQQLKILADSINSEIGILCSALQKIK
Assay: Cell Based Phenylalanine Flux Assay
Conditions: A375 R408W cells; 24 hrs with compound, then 20 μM sepiapterin and 800 μM 13C9,15N-Phenylalanine for 4 hours; 13C-Tyrosine by LC-MS; average where tested multiple times
In short: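 Puromycin-selected A375 line, lentiviral hPAH R408W; cmpd 24 h, 37 °C, 5% CO2, 0.5% DMSO; then 20 μM sepiapterin + 800 μM 13C9,15N-Phe, 4 h; media extracted in 80% MeCN; 13C-Tyr by LC-MS; AC50 from 10-pt curves.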

Row | AC50 | SMILES
1 | ≤ 500 nM | Cn1ccc(-c2nnc(C(=O)N3CCc4[nH]cnc4[C@H]3c3nc4c(F)cccc4o3)o2)n1 [Example 379, (S)-(4-(4-fluorobenzo[d]oxazol-2-yl)-1,4,6,7-tetrahydro-5H-imidazo[4,5-c]pyridin-5-yl)(5-(1-methyl-1H-pyrazol-3-yl)-1,3,4-oxadiazol-2-yl)methanone]
2 | 500 to 1000 nM | Cn1ccc(-c2nnc(C(=O)N3CCc4[nH]cnc4[C@@H]3c3nc4c(F)cccc4o3)o2)n1 [Example 380, (R)-(4-(4-fluorobenzo[d]oxazol-2-yl)-1,4,6,7-tetrahydro-5H-imidazo[4,5-c]pyridin-5-yl)(5-(1-methyl-1H-pyrazol-3-yl)-1,3,4-oxadiazol-2-yl)methanone]
3 | 1000 to 5000 nM | Cc1cccc2oc([C@H]3c4nc[nH]c4CCN3C(=O)c3ocnc3C(F)F)nc12 [Example 381, (R)-(4-(difluoromethyl)oxazol-5-yl)(4-(4-methylbenzo[d]oxazol-2-yl)-6,7-dihydro-1H-imidazo[4,5-c]pyridin-5(4H)-yl)methanone]
4 | ≤ 500 nM | Cc1cccc2oc([C@@H]3c4nc[nH]c4CCN3C(=O)c3ocnc3C(F)F)nc12 [Example 382, (S)-(4-(difluoromethyl)oxazol-5-yl)(4-(4-methylbenzo[d]oxazol-2-yl)-6,7-dihydro-1H-imidazo[4,5-c]pyridin-5(4H)-yl)methanone]
5 | ≤ 500 nM | Cn1cc(-c2ccc3c(C(=O)N4CCc5[nH]cnc5[C@H]4c4nc5cccc(F)c5o4)cnn3c2)cn1 [Example 383, (S)-(4-(7-fluorobenzo[d]oxazol-2-yl)-6,7-dihydro-1H-imidazo[4,5-c]pyridin-5(4H)-yl)(6-(1-methyl-1H-pyrazol-4-yl)pyrazolo[1,5-a]pyridin-3-yl)methanone]
6 | 1000 to 5000 nM | Cn1cc(-c2ccc3c(C(=O)N4CCc5[nH]cnc5[C@@H]4c4nc5cccc(F)c5o4)cnn3c2)cn1 [Example 384, (R)-(4-(7-fluorobenzo[d]oxazol-2-yl)-6,7-dihydro-1H-imidazo[4,5-c]pyridin-5(4H)-yl)(6-(1-methyl-1H-pyrazol-4-yl)pyrazolo[1,5-a]pyridin-3-yl)methanone]
7 | ≤ 500 nM | O=C(CCc1nccs1)N1CCc2[nH]cnc2[C@H]1c1nc2cccc(F)c2o1 [Example 385, 1-[(4S)-4-(7-fluoro-1,3-benzoxazol-2-yl)-1,4,6,7-tetrahydroimidazo[4,5-c]pyridin-5-yl]-3-thiazol-2-yl-propan-1-one]
8 | ≥ 5000 nM | O=C(CCc1nccs1)N1CCc2[nH]cnc2[C@@H]1c1nc2cccc(F)c2o1 [Example 386, 1-[(4R)-4-(7-fluoro-1,3-benzoxazol-2-yl)-1,4,6,7-tetrahydroimidazo[4,5-c]pyridin-5-yl]-3-thiazol-2-yl-propan-1-one]
9 | 500 to 1000 nM | O=C(CCc1ncco1)N1CCc2[nH]cnc2[C@H]1c1nc2cccc(F)c2o1 [Example 387, (S)-1-(4-(7-fluorobenzo[d]oxazol-2-yl)-6,7-dihydro-1H-imidazo[4,5-c]pyridin-5(4H)-yl)-3-(oxazol-2-yl)propan-1-one]
10 | ≥ 5000 nM | O=C(CCc1ncco1)N1CCc2[nH]cnc2[C@@H]1c1nc2cccc(F)c2o1 [Example 388, (R)-1-(4-(7-fluorobenzo[d]oxazol-2-yl)-6,7-dihydro-1H-imidazo[4,5-c]pyridin-5(4H)-yl)-3-(oxazol-2-yl)propan-1-one]
11 | ≤ 500 nM | Cc1ccc2oc([C@@H]3c4nc[nH]c4CCN3C(=O)c3nnc(-c4ccn(C)n4)o3)nc2c1 [Example 389, (S)-(5-(1-methyl-1H-pyrazol-3-yl)-1,3,4-oxadiazol-2-yl)(4-(5-methylbenzo[d]oxazol-2-yl)-6,7-dihydro-1H-imidazo[4,5-c]pyridin-5(4H)-yl)methanone]
12 | 1000 to 5000 nM | Cc1ccc2oc([C@H]3c4nc[nH]c4CCN3C(=O)c3nnc(-c4ccn(C)n4)o3)nc2c1 [Example 390, (R)-(5-(1-methyl-1H-pyrazol-3-yl)-1,3,4-oxadiazol-2-yl)(4-(5-methylbenzo[d]oxazol-2-yl)-6,7-dihydro-1H-imidazo[4,5-c]pyridin-5(4H)-yl)methanone]
13 | 1000 to 5000 nM | Cc1cccc2nc([C@H]3c4nc[nH]c4CCN3C(=O)c3oc(C(C)(C)O)nc3C(F)F)oc12 [Example 391, (R)-(4-(difluoromethyl)-2-(2-hydroxypropan-2-yl)oxazol-5-yl)(4-(7-methylbenzo[d]oxazol-2-yl)-6,7-dihydro-1H-imidazo[4,5-c]pyridin-5(4H)-yl)methanone]
14 | ≤ 500 nM | Cc1cccc2nc([C@@H]3c4nc[nH]c4CCN3C(=O)c3oc(C(C)(C)O)nc3C(F)F)oc12 [Example 392, (S)-(4-(difluoromethyl)-2-(2-hydroxypropan-2-yl)oxazol-5-yl)(4-(7-methylbenzo[d]oxazol-2-yl)-6,7-dihydro-1H-imidazo[4,5-c]pyridin-5(4H)-yl)methanone]
15 | ≤ 500 nM | Cc1cccc2nc([C@@H]3c4nc[nH]c4CCN3C(=O)c3ocnc3C(F)F)oc12 [Example 393, (S)-(4-(difluoromethyl)oxazol-5-yl)(4-(7-methylbenzo[d]oxazol-2-yl)-6,7-dihydro-1H-imidazo[4,5-c]pyridin-5(4H)-yl)methanone]
16 | 500 to 1000 nM | Cc1cccc2nc([C@H]3c4nc[nH]c4CCN3C(=O)c3ocnc3C(F)F)oc12 [Example 394, (R)-(4-(difluoromethyl)oxazol-5-yl)(4-(7-methylbenzo[d]oxazol-2-yl)-6,7-dihydro-1H-imidazo[4,5-c]pyridin-5(4H)-yl)methanone]
17 | 500 to 1000 nM | O=C(c1cnn2cc(N3CCC4(CC3)CC4)ccc12)N1CCc2[nH]cnc2[C@H]1c1nc2cccc(F)c2o1 [Example 395, (S)-(6-(6-azaspiro[2.5]octan-6-yl)pyrazolo[1,5-a]pyridin-3-yl)(4-(7-fluorobenzo[d]oxazol-2-yl)-6,7-dihydro-1H-imidazo[4,5-c]pyridin-5(4H)-yl)methanone]
18 | 1000 to 5000 nM | O=C(c1cnn2cc(N3CCC4(CC3)CC4)ccc12)N1CCc2[nH]cnc2[C@@H]1c1nc2cccc(F)c2o1 [Example 396, (R)-(6-(6-azaspiro[2.5]octan-6-yl)pyrazolo[1,5-a]pyridin-3-yl)(4-(7-fluorobenzo[d]oxazol-2-yl)-6,7-dihydro-1H-imidazo[4,5-c]pyridin-5(4H)-yl)methanone]
19 | 500 to 1000 nM | O=C(CCc1nccs1)N1CCc2[nH]cnc2[C@H]1c1nc2c(F)cccc2o1 [Example 397, (S)-1-(4-(4-fluorobenzo[d]oxazol-2-yl)-6,7-dihydro-1H-imidazo[4,5-c]pyridin-5(4H)-yl)-3-(thiazol-2-yl)propan-1-one]
20 | ≥ 5000 nM | O=C(CCc1nccs1)N1CCc2[nH]cnc2[C@@H]1c1nc2c(F)cccc2o1 [Example 398, (R)-1-(4-(4-fluorobenzo[d]oxazol-2-yl)-6,7-dihydro-1H-imidazo[4,5-c]pyridin-5(4H)-yl)-3-(thiazol-2-yl)propan-1-one]
21 | 500 to 1000 nM | O=C(c1nnc(-c2cccnc2)o1)N1CCc2[nH]cnc2[C@H]1c1nc2cc(F)ccc2o1 [Example 399, (S)-(4-(5-fluorobenzo[d]oxazol-2-yl)-6,7-dihydro-1H-imidazo[4,5-c]pyridin-5(4H)-yl)(5-(pyridin-3-yl)-1,3,4-oxadiazol-2-yl)methanone]
22 | 1000 to 5000 nM | O=C(c1nnc(-c2cccnc2)o1)N1CCc2[nH]cnc2[C@@H]1c1nc2cc(F)ccc2o1 [Example 400, (R)-(4-(5-fluorobenzo[d]oxazol-2-yl)-6,7-dihydro-1H-imidazo[4,5-c]pyridin-5(4H)-yl)(5-(pyridin-3-yl)-1,3,4-oxadiazol-2-yl)methanone]
23 | ≤ 500 nM | O=C(c1oc(N2CCC(F)CC2)nc1C(F)F)N1CCc2[nH]cnc2[C@H]1c1nc2cc(F)ccc2o1 [Example 401, (S)-(4-(difluoromethyl)-2-(4-fluoropiperidin-1-yl)oxazol-5-yl)(4-(5-fluorobenzo[d]oxazol-2-yl)-6,7-dihydro-1H-imidazo[4,5-c]pyridin-5(4H)-yl)methanone]
24 | 1000 to 5000 nM | O=C(c1oc(N2CCC(F)CC2)nc1C(F)F)N1CCc2[nH]cnc2[C@@H]1c1nc2cc(F)ccc2o1 [Example 402, (R)-(4-(difluoromethyl)-2-(4-fluoropiperidin-1-yl)oxazol-5-yl)(4-(5-fluorobenzo[d]oxazol-2-yl)-6,7-dihydro-1H-imidazo[4,5-c]pyridin-5(4H)-yl)methanone]
25 | 500 to 1000 nM | CN1CCN(c2nc(C(F)F)c(C(=O)N3CCc4[nH]cnc4[C@H]3c3nc4cc(F)ccc4o3)o2)CC1 [Example 403, (S)-(4-(difluoromethyl)-2-(4-methylpiperazin-1-yl)oxazol-5-yl)(4-(5-fluorobenzo[d]oxazol-2-yl)-6,7-dihydro-1H-imidazo[4,5-c]pyridin-5(4H)-yl)methanone]
26 | 1000 to 5000 nM | CN1CCN(c2nc(C(F)F)c(C(=O)N3CCc4[nH]cnc4[C@@H]3c3nc4cc(F)ccc4o3)o2)CC1 [Example 404, (R)-(4-(difluoromethyl)-2-(4-methylpiperazin-1-yl)oxazol-5-yl)(4-(5-fluorobenzo[d]oxazol-2-yl)-6,7-dihydro-1H-imidazo[4,5-c]pyridin-5(4H)-yl)methanone]
27 | 500 to 1000 nM | O=C(c1oc(-c2cncnc2)nc1C(F)F)N1CCc2[nH]cnc2[C@@H]1c1nc2cc(F)ccc2o1 [Example 405, (R)-(4-(difluoromethyl)-2-(pyrimidin-5-yl)oxazol-5-yl)(4-(5-fluorobenzo[d]oxazol-2-yl)-6,7-dihydro-1H-imidazo[4,5-c]pyridin-5(4H)-yl)methanone]

Reference: patent US20250171437A1 (Agios Pharmaceuticals,Inc., priority 2022, published 2025)
